“And” between values parts separate entries of the source, which are not always exact repeats. Identical values can stand only once. Inconclusive results and toxic doses are left out. Cut-off read from the data, not from the text of the source: active = T/C of 150% or more; inactive = T/C below 125%.
System: L1210 leukemia ip in BDF1 mice, survival T/C
Test: NCI In Vivo Anticancer Drug Screen. Data for tumor model L1210 Leukemia (intraperitoneal) in B6D2F1 (BDF1) mice
Settings: endpoint: mean survival time, higher = longer survival
Method in brief: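 Transplantable tumor model; survival measured in treated vs vehicle control mice. Value = treated/control.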

[1] = dose: 100.0 mg/kg/injection, schedule: Q01DX009 (ip), vehicle: saline with Tween-80
[2] = dose: 100.0 mg/kg/injection, schedule: Q04DX002 (ip), vehicle: saline with Tween-80
[3] = dose: 200.0 mg/kg/injection, schedule: Q01DX009 (ip), vehicle: saline with Tween-80
[4] = dose: 200.0 mg/kg/injection, schedule: Q04DX002 (ip), vehicle: saline with Tween-80
[5] = dose: 400.0 mg/kg/injection, schedule: Q01DX009 (ip), vehicle: saline with Tween-80
[6] = dose: 100.0 mg/kg/injection, schedule: Q01DX001 (ip), vehicle: saline
[7] = dose: 200.0 mg/kg/injection, schedule: Q01DX001 (ip), vehicle: saline
[8] = dose: 100.0 mg/kg/injection, schedule: Q04DX003 (ip), vehicle: saline with Tween-80
[9] = dose: 200.0 mg/kg/injection, schedule: Q04DX003 (ip), vehicle: saline with Tween-80
[10] = dose: 50.0 mg/kg/injection, schedule: Q01DX009 (ip), vehicle: saline with Tween-80
[11] = dose: 100.0 mg/kg/injection, schedule: Q01DX001 (ip), vehicle: carboxymethylcellulose (CMC)
[12] = dose: 200.0 mg/kg/injection, schedule: Q01DX001 (ip), vehicle: carboxymethylcellulose (CMC)
[13] = dose: 400.0 mg/kg/injection, schedule: Q01DX001 (ip), vehicle: carboxymethylcellulose (CMC)

Measured: T/C

O=C(NCCBr)Nc1ccccc1
inactive: dose: 12.5 mg/kg/injection, schedule: Q01DX009 (ip), vehicle: Klucel (hydroxypropylcellulose) (HPC) 97 % of control | dose: 25.0 mg/kg/injection, schedule: Q01DX009 (ip), vehicle: Klucel (hydroxypropylcellulose) (HPC) 108 % of control | dose: 50.0 mg/kg/injection, schedule: Q01DX009 (ip), vehicle: Klucel (hydroxypropylcellulose) (HPC) 108 % of control | dose: 80.0 mg/kg/injection, schedule: Q01DX009 (ip), vehicle: Klucel (hydroxypropylcellulose) (HPC) 103 % of control | dose: 115.0 mg/kg/injection, schedule: Q01DX009 (ip), vehicle: Klucel (hydroxypropylcellulose) (HPC) 114 % of control | dose: 170.0 mg/kg/injection, schedule: Q01DX009 (ip), vehicle: Klucel (hydroxypropylcellulose) (HPC) 95 % of control

O=C1c2ccccc2CCC12OC2c1ccccc1[N+](=O)[O-] (stereo not drawn)
inactive: dose: 100.0 mg/kg/injection, schedule: Q01DX009 (ip), vehicle: saline 88 % of control | dose: 100.0 mg/kg/injection, schedule: Q04DX003 (ip), vehicle: acetone 98 % of control | dose: 200.0 mg/kg/injection, schedule: Q01DX009 (ip), vehicle: saline 89 % of control | dose: 200.0 mg/kg/injection, schedule: Q04DX003 (ip), vehicle: acetone 93 % of control | dose: 400.0 mg/kg/injection, schedule: Q01DX009 (ip), vehicle: saline 98 % of control | dose: 400.0 mg/kg/injection, schedule: Q04DX003 (ip), vehicle: acetone 109 % of control

NS(=O)(=O)c1ccc(NC(=O)Nc2ccccc2F)cc1
inactive: dose: 100.0 mg/kg/injection, schedule: Q01DX001 (ip), vehicle: saline with Tween-80 102 % of control | [1] 98 % of control and 104 % of control | [2] 93 % of control and 97 % of control | dose: 200.0 mg/kg/injection, schedule: Q01DX001 (ip), vehicle: saline with Tween-80 101 % of control | [3] 93 % of control and 102 % of control | [4] 98 % of control and 105 % of control | dose: 400.0 mg/kg/injection, schedule: Q01DX001 (ip), vehicle: saline with Tween-80 90 % of control | [5] 98 % of control and 102 % of control | dose: 400.0 mg/kg/injection, schedule: Q04DX002 (ip), vehicle: saline with Tween-80 96 % of control and 97 % of control

Nc1ccc(/C=C/c2ccc(N)cc2S(=O)(=O)O)c(S(=O)(=O)O)c1
inactive: dose: 50.0 mg/kg/injection, schedule: Q01DX001 (ip), vehicle: saline 97 % of control | [6] 94 % of control | [7] 94 % of control | dose: 400.0 mg/kg/injection, schedule: Q01DX001 (ip), vehicle: saline 97 % of control

CNC(=O)c1ccc(/C=C/c2c[nH]c3ccccc23)[n+](C)c1
inactive: [6] 97 % of control | [7] 95 % of control

CCOC1(C(=O)O)CC(c2ccc(Cl)cc2)Nc2c(OC)ccc(OC)c21 (stereo not drawn)
inactive: [8] 98 % of control | [9] 93 % of control

CCCCCCC(O)C(=O)O (stereo not drawn)
inactive: [2] 102 % of control | [4] 102 % of control

Cn1nnc2nnc(-c3ccccc3)n21
inactive: [1] 100 % of control | [8] 95 % of control | [3] 94 % of control | [9] 106 % of control | [5] 108 % of control | dose: 400.0 mg/kg/injection, schedule: Q04DX003 (ip), vehicle: saline with Tween-80 98 % of control

Cc1ccc([N+](=O)[O-])cc1NC(=O)NCc1ccccc1
inactive: dose: 100.0 mg/kg/injection, schedule: Q01DX009 (ip), vehicle: Klucel (hydroxypropylcellulose) (HPC) 89 % of control | dose: 200.0 mg/kg/injection, schedule: Q01DX009 (ip), vehicle: Klucel (hydroxypropylcellulose) (HPC) 89 % of control | dose: 400.0 mg/kg/injection, schedule: Q01DX009 (ip), vehicle: Klucel (hydroxypropylcellulose) (HPC) 97 % of control

CCOC(=O)C(c1ccccc1)c1ccccc1
inactive: dose: 100.0 mg/kg/injection, schedule: Q01DX009 (ip), vehicle: other 102 % of control | dose: 200.0 mg/kg/injection, schedule: Q01DX009 (ip), vehicle: other 94 % of control | dose: 400.0 mg/kg/injection, schedule: Q01DX009 (ip), vehicle: other 93 % of control

N#CCC(=O)NCc1ccco1
inactive: [10] 106 % of control | [1] 103 % of control | [2] 104 % of control | [4] 114 % of control

CCCCCCCCCCCCCCCCCC(=O)[O][Hg][c]1ccccc1
inactive: dose: 5.0 mg/kg/injection, schedule: Q01DX001 (ip), vehicle: carboxymethylcellulose (CMC) 94 % of control | dose: 8.0 mg/kg/injection, schedule: Q01DX015 (ip), vehicle: carboxymethylcellulose (CMC) 96 % of control | dose: 10.0 mg/kg/injection, schedule: Q01DX001 (ip), vehicle: carboxymethylcellulose (CMC) 94 % of control | dose: 10.0 mg/kg/injection, schedule: Q01DX009 (ip), vehicle: saline with Tween-80 94 % of control | dose: 16.0 mg/kg/injection, schedule: Q01DX015 (ip), vehicle: carboxymethylcellulose (CMC) 92 % of control | dose: 20.0 mg/kg/injection, schedule: Q01DX001 (ip), vehicle: carboxymethylcellulose (CMC) 92 % of control | dose: 20.0 mg/kg/injection, schedule: Q01DX009 (ip), vehicle: saline with Tween-80 110 % of control | dose: 20.0 mg/kg/injection, schedule: Q04DX003 (ip), vehicle: saline 102 % of control | dose: 32.0 mg/kg/injection, schedule: Q01DX015 (ip), vehicle: carboxymethylcellulose (CMC) 94 % of control | dose: 40.0 mg/kg/injection, schedule: Q01DX001 (ip), vehicle: carboxymethylcellulose (CMC) 100 % of control | dose: 40.0 mg/kg/injection, schedule: Q04DX003 (ip), vehicle: saline 98 % of control

C=C(C)C1CCC(C)=CC1c1c(OC(=O)c2cc([N+](=O)[O-])cc([N+](=O)[O-])c2)cc(CCCCC)cc1OC(=O)c1cc([N+](=O)[O-])cc([N+](=O)[O-])c1 (stereo not drawn)
inactive: dose: 100.0 mg/kg/injection, schedule: Q01DX001 (ip), vehicle: Klucel (hydroxypropylcellulose) (HPC) 92 % of control | dose: 200.0 mg/kg/injection, schedule: Q01DX001 (ip), vehicle: Klucel (hydroxypropylcellulose) (HPC) 91 % of control | dose: 400.0 mg/kg/injection, schedule: Q01DX001 (ip), vehicle: Klucel (hydroxypropylcellulose) (HPC) 92 % of control

CC(=O)OCCC/C(=C\c1c2ccccc2cc2ccccc12)[N+](=O)[O-]
inactive: [11] 94 % of control | [12] 94 % of control | [13] 96 % of control

COC(=O)CCc1ccc(OC)cc1
inactive: dose: 100.0 mg/kg/injection, schedule: Q04DX003 (ip), vehicle: other 100 % of control | dose: 200.0 mg/kg/injection, schedule: Q04DX003 (ip), vehicle: other 99 % of control | dose: 400.0 mg/kg/injection, schedule: Q04DX003 (ip), vehicle: other 106 % of control

Cc1cccc(N=Cc2ccccc2O)c1
inactive: [10] 99 % of control | [11] 95 % of control | [1] 97 % of control | [12] 97 % of control | [3] 95 % of control | [13] 103 % of control

O=C1c2ccccc2-c2c(Br)cccc21
inactive: dose: 50.0 mg/kg/injection, schedule: Q04DX002 (ip), vehicle: saline with Tween-80 91 % of control | [2] 91 % of control | [4] 102 % of control

COC(=O)C12C(=CCP1(C)=O)C(c1ccccc1)=NN2c1ccccc1 (stereo not drawn)
inactive: dose: 12.5 mg/kg/injection, schedule: Q04DX002 (ip), vehicle: saline with Tween-80 92 % of control | dose: 25.0 mg/kg/injection, schedule: Q04DX002 (ip), vehicle: saline with Tween-80 95 % of control

Reference: PubChem BioAssay AID248 (DTP/NCI, 2004)
